Experimental findings from publication doi:10.1101/2023.08.21.553510v1 (biorxiv, 2023) are described below.

Test [1] deals with T1, RyR2 (Mus musculus, UniProt E9Q401). The test is described as follows: ER Ca2+. The class given is cell-based.
For test [2], the target named is T1, RyR2. The test is described as follows: [3H]ryanodine binding to microsomes. It counts as biochemical.

For orientation: EC50 means the concentration giving half of the maximal effect. Low values mean higher potency in that assay, high ones lower potency in that assay. For orientation: IC50 means the concentration needed to halve the response being measured.

T1 sequence (E9Q401 whole entry): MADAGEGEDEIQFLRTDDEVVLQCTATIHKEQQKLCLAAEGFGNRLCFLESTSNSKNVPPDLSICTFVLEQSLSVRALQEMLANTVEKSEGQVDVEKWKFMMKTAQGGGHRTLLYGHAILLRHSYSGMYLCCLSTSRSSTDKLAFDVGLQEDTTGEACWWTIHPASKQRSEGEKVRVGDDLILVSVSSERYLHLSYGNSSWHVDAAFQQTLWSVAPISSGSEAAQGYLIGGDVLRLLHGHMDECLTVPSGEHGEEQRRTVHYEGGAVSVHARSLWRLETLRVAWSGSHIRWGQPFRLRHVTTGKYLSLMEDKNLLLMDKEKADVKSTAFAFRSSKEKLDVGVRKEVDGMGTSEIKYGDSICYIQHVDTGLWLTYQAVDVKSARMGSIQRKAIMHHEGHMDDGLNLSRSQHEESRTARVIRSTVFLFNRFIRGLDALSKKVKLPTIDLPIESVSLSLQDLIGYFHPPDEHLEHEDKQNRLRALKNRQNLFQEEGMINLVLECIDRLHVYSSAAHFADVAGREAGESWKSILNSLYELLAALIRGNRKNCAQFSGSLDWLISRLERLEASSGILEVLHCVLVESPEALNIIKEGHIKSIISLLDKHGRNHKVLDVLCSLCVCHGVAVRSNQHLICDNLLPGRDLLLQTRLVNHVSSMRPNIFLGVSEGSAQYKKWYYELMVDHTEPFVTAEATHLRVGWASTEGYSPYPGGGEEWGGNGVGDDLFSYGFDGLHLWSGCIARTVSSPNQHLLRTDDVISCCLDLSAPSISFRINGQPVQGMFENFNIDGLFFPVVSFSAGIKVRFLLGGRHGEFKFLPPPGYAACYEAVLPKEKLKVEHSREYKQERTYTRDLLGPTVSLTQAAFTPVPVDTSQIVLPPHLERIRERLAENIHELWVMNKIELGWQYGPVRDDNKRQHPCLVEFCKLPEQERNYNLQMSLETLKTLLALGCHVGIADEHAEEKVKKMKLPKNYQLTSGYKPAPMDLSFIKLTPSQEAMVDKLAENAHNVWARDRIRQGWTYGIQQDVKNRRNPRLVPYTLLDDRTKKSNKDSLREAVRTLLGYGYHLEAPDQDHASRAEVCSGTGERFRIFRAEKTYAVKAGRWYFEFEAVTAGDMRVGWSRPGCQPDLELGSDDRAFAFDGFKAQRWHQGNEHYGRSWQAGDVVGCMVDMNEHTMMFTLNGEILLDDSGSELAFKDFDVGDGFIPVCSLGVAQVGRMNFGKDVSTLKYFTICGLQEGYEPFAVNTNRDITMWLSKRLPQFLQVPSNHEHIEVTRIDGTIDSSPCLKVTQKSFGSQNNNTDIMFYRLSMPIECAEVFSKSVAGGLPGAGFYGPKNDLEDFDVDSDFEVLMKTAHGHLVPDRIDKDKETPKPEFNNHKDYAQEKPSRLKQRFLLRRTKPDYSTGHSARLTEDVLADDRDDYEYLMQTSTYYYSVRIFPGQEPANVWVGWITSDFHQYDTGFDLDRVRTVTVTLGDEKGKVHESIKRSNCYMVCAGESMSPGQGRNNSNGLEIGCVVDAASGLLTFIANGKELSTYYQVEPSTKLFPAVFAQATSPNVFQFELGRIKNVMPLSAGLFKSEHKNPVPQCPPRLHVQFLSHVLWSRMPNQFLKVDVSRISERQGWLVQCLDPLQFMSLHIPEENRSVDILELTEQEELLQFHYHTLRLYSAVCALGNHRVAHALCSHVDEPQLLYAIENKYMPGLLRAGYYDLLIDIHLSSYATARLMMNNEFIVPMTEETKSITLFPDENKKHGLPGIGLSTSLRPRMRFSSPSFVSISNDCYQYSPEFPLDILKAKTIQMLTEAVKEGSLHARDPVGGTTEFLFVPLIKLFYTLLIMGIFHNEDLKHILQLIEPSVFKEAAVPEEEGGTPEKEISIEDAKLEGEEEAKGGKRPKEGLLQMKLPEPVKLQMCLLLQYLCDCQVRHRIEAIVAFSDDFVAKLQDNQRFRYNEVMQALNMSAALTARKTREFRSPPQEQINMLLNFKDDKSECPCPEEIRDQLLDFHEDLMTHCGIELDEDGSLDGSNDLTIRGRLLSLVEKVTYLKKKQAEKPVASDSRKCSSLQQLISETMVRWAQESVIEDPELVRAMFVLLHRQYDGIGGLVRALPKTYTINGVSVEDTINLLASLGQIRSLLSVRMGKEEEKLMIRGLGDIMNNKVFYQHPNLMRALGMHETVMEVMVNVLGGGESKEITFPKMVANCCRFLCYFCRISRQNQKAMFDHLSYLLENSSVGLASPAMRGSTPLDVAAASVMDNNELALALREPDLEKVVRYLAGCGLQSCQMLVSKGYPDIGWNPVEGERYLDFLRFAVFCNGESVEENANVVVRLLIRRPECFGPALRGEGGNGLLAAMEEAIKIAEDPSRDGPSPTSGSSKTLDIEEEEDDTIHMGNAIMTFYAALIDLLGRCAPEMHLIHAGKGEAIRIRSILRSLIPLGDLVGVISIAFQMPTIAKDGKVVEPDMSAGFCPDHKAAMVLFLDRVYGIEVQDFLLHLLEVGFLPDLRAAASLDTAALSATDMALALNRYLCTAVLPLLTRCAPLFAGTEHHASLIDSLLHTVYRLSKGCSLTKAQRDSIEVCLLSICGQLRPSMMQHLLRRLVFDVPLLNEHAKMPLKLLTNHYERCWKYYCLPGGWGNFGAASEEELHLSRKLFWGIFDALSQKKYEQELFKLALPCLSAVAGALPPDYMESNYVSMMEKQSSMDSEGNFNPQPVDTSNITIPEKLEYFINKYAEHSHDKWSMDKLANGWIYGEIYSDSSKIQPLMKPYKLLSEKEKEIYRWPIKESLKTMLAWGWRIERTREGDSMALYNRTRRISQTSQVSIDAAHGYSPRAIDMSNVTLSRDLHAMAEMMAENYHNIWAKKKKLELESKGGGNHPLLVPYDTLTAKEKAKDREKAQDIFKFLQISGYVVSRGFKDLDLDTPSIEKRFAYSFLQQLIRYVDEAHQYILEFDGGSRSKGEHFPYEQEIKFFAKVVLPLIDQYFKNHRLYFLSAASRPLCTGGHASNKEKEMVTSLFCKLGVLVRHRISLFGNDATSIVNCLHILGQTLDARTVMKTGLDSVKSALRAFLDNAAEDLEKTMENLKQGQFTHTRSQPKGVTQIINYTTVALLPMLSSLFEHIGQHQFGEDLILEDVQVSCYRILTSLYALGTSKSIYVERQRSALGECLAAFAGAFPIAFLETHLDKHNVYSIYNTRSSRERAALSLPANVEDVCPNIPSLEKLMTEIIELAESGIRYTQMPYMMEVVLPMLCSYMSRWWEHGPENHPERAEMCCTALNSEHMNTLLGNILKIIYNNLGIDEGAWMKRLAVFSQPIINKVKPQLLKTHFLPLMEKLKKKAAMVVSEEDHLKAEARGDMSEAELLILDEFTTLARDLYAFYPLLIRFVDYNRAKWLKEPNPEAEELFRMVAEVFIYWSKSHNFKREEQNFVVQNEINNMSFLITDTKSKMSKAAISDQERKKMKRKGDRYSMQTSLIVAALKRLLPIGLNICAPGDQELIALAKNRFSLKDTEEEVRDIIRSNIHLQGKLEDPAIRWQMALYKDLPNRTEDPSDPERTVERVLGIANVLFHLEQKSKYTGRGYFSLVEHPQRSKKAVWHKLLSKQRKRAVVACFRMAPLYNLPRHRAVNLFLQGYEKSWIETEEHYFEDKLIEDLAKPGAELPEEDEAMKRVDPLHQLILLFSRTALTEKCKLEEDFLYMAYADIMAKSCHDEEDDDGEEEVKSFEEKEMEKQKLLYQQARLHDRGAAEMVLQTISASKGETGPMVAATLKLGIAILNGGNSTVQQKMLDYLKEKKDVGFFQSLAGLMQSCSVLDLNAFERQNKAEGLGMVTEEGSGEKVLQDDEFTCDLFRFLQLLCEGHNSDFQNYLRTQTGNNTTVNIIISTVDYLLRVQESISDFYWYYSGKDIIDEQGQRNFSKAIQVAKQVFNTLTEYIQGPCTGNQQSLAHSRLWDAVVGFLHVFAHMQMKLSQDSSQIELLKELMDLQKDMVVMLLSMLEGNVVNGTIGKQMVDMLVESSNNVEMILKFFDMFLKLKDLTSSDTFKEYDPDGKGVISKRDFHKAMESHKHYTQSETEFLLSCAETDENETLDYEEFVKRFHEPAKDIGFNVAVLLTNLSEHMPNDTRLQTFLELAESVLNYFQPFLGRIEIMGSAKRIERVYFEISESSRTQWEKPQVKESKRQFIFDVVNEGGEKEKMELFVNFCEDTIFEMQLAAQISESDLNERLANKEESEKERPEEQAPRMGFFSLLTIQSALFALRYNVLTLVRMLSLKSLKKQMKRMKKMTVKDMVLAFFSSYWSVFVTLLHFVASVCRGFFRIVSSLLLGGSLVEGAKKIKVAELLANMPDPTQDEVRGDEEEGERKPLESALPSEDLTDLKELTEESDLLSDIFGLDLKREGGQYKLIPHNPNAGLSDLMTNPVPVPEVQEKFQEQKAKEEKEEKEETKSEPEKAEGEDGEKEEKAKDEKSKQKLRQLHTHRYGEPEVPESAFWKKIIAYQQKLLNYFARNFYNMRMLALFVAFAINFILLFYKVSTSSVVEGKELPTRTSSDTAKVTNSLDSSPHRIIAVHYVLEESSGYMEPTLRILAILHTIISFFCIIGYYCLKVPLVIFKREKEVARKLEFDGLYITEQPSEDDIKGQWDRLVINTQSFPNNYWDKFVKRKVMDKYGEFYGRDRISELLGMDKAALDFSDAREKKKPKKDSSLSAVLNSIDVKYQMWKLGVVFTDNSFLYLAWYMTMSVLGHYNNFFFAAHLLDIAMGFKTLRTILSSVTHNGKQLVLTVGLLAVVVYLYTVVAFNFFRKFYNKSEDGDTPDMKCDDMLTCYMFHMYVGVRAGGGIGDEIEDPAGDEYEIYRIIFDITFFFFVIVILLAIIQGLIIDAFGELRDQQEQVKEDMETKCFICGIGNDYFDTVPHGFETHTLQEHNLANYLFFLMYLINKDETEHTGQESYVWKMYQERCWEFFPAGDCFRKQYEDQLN

As for `Cc1cc(O)cc(C)c1Cl` [#1, chloroxylenol], at RyR2 [1], the EC50 came out at 300 nM. The compound further displayed an IC50 at RyR2 [2] of 130 nM.
